Entries after “also recorded” stand apart in the source; their conditions may differ.
Columns and labels:
[1] = tested on: HLE-B3 cells; test: EMT marker / Wnt-β-catenin immunoblot in human lens epithelial cell line HLE-B3; type: cell-based; details: for αSMA production after BSO stimulation: HLE-B3 cells co-treated with 10 mM NAC or 0.5 mM GSH-EE and 500 μM BSO, 24 hr; for TGFβ2-mediated αSMA production: HLE-B3 cells, 10 mM NAC or 0.5 mM GSH-EE co-incubated with 1 ng/ml TGFβ2, 24 hr; for BSO-increased Ser9 phosphorylation of GSK-3β / BSO-increased β-catenin expression: cells co-treated with 0.5 mM GSH-EE or 10 mM NAC, BSO 24 hr
Protocol: Cell Culture—Human lens epithelial cells (HLE-B3) were grown in DMEM medium with 10% fetal bovine serum (FBS), 2 mM glutamine and 50 unit/ml penicillin streptomycin (ThermoFisher, Waltham, Mass.) at 37° C. in a humidified 5% CO2 incubator. For primary porcine lens epithelial cell culture, pig eyes were collected at a local slaughterhouse within two hours of postmortem time, placed on ice and transported to the lab (about 1 hr) for immediate processing. First, the isolated lens was incubated with 2 ml of 0.25% trypsin at 37° C. for 2 min to remove any attached non-lens cells. Then, after a brief rinse with HBSS, the lens capsule was isolated and rinsed three times with HBSS before incubation with 2 ml of 0.5% trypsin for 5 min. 5 ml of complete DMEM medium was added and tissue was disrupted by pipetting up and down 10-15 times with a pipette fitted with a 1000 μl tip. The tissue homogenate was then passed through a 100 μm cell strainer. The cells were collected by low speed centrifugation at 150×g and placed in a 35 mm laminin-coated tissue culture dish with DMEM medium supplied with 10% FBS, 2 mM glutamine and 50 unit/ml penicillin streptomycin (ThernoFisher). The cells were cultured at 37° C. in a humidified incubator with 5% CO2.
Cells were placed 24 hr before the treatment and fresh medium was replaced immediately before the treatment. The indicated concentrations of BSO, DMF, NAC, GSH-EE or TGFβ2 were added to fresh medium and incubated at various time intervals as indicated. After treatment time, the cells were harvested after three washes with ice-cold PBS and subjected to immunoblot or other assays as described below. For whole lens culture, the serum-free medium with or without BSO, NAC, GSH-EE or TGFβ2 was incubated immediately after isolation for 48 hr and the whole lens or lens capsule was collected for further analysis. For lens explant culture, 48 hr after explant culture, various stimulates were used in fresh serum-free medium for an additional 48 hr, and the explant was fixed with 10% formaldehyde for 10 min before immunofluorescence stain, as described below.
The cells, whole lens, lens capsule, and lens fibers were collected and lysed in lysis buffer containing 20 mM Tris pH 7.5, 1 mM EDTA, 1 mM EGTA, 150 mM NaCl, 1% Triton X-100, 2.5 mM sodium pyrophosphate, 1 mM bα-Glycerolphosphate, 1 mM Na3VO4, 1 mg/ml Leupeptin, 1 mM PMSF on ice for 10 min. The protein concentration from the supernatant was determined by protein BCA assay (ThermoFisher). The protein extract was further processed for immunoblot analysis and probed for αSMA, collagen I, vimentin, phosphorylated Smad2, phosphorylated Smad3, phosphorylated GSK-3β and (β-catenin. All data were normalized to the level of GAPDH.

[2] = tested on: mice; test: Mouse mock cataract surgery in vivo, immunofluorescence of EMT markers
Protocol: Age-matched four month old mice were used in this study. Mice were anesthetized and a central corneal incision was made. The lens fiber mass was removed by hydrodissection and the remaining lens was carefully washed by HBSS to remove any lens fiber debris. Saline buffer was injected to help mice to restore their proper eye shape. Eye drops containing the antibiotic Ofloxacin were applied once immediately after surgery, and mice were sacrificed at 2, 3, 4 and 5 days after surgery. For each mouse, bilateral surgeries were performed and 25 μl of 10 mM NAC or 2 mM of GSH-EE was injected into right eye chamber immediately after surgery and continual eye drop topical application was given every 6 hr from 7 am to 11 pm. The untreated left eye served as a control. Eyes collected immediately after surgery served as time zero control. At least 6 mice were used in each group. At each time point, eyes were carefully dissected and placed in 4% paraformaldehyde for 18 hr, and then subjected to paraffin embedding and sectioning. For paraffin embedded slides, 6 μm thick sections were deparaffinized and rehydrated using standard procedure. The slides were rinsed with PBS for 10 min and antigen retrieval was carried out in 0.1M sodium citrate, pH 6.0 buffer in a microwave oven using a 4 min at power 5 plus 8 min at power 3 program. The slides were then blocked and permeabilized with 5% normal goat serum, 0.3% triton X-100 for 30 min. The primary antibody, rabbit polyclonal collagen I antibody (1:250) (Abcam, Cambridge, Mass.), rabbit polyclonal vimentin (1:500) (ThermoFisher), mouse monoclonal fibronectin antibody (1:5) (Developmental Studies Hybridoma Bank, DSHB, University of Iowa), mouse monoclonal active β-catenin (Tyr489) (1:10) (DSHB) or FITC labeled mouse monoclonal αSMA antibody (1:1000) (Sigma-Aldrich) were applied in 0.1% BSA PBS solution and incubated at 4° C. overnight in a humid chamber. After wash, the Alexa-488 or/and Alexa-594 conjugated secondary antibodies (ThermoFisher) were then applied and incubated at room temperature for one hour in a humid chamber. After wash, the slides were mounted with Prolong antifade with DAPI (ThermoFisher). For lens explant culture, the explant was briefly fixed with 10% formaldehyde for 10 min and then subjected to directly staining procedure without antigen retrieval procedure. Confocal microscope—All confocal images were collected by a Leica SP8 gSTED confocal microscope equipped with two 3 Hyd SP GaAsP detectors and the AOBS system lasers include a 405 nm, Argon (458, 476, 488, 496, 514 nm), a tunable white light (470 to 670 nm), and a 592 nm STED depletion laser. For proper comparison, each channel of fluorescence was adjusted to the highest sensitivity/intensity but without over saturation from samples with the strongest signal. […]

Row | Compound | αSMA production after BSO stimulation [1] | TGFβ2-mediated αSMA production [1] | BSO-increased Ser9 phosphorylation of GSK-3β [1] | BSO-increased β-catenin expression [1] | production of EMT marker proteins (fibronectin, vimentin, collagen I, αSMA) ([2]; Gclm KO mice, 2 mM GSH-EE) | inhibitory effect on EMT process compared with GSH-EE ([1]; cell culture) | nuclear colocalization (translocation) of active β-catenin ([2]; Gclc−/− (LEGSKO) mice, 72 hr after surgery, 10 mM NAC injected into eye chamber plus eye drops every 6 hours) | fibronectin/vimentin and collagen I/αSMA expression compared to control eyes ([2]; WT and LEGSKO mice, 10 mM NAC injection immediately after surgery and continuous topical application) | inhibitory effect on EMT process compared with GSH-EE ([2]; in vivo cataract surgery models)
1 | CCOC(=O)CNC(=O)[C@H](CS)NC(=O)CC[C@H](N)C(=O)O [GSH-EE, glutathione ethyl ester] | alleviated; also recorded: partially, but significantly, block | alleviated; also recorded: significantly alleviate | alleviated | attenuate; also recorded: alleviated | partially but significantly attenuate | – | – | – | –
2 | CC(=O)N[C@@H](CS)C(=O)O [NAC, N-acetyl cysteine] | alleviated; also recorded: completely abolish | alleviated; also recorded: completely block | attenuate; also recorded: alleviated; also recorded: completely abolished | alleviated | – | much higher inhibitory effect than GSH-EE | significantly attenuated | remarkable attenuation | much higher inhibitory effect than GSH-EE
